Here are results for 19 molecules from patent US10894798B2, “Substituted dihydropyrrolopyrazole derivative” (UBE INDUSTRIES, LTD., priority 2015, dated 2021).

One test addresses T1, CDK7 (Homo sapiens, UniProt P50613).
T1 construct: purchased Carna Biosciences, Inc. 04-108
In words: CDK7 enzyme inhibition test. Type of test: biochemical. To be noted: [γ-33P]ATP, MBP substrate, 60 min preincubation at 25°C; Ki=IC50/(1+S/Km); read-out: Ki value of CDK7 inhibitory activity. Put shortly:
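Commercial human CDK7 with myelin basic protein substrate in HEPES pH 7.4 buffer with DTT, Triton X-100, MgCl2; compound preincubated 60 min at 25° C, then reaction run 20 min at 30° C after adding [γ-^33P]ATP (500 μM solution). TCA-precipitated ^33P-MBP counted by scintillation; IC50 converted to Ki via Ki=IC50/(1+S/Km).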

For another test, the target named is T2, PLK1 (Homo sapiens, UniProt P53350).
T2 construct: purchased Carna Biosciences, Inc. 05-157
T2 sequence (P53350 whole entry): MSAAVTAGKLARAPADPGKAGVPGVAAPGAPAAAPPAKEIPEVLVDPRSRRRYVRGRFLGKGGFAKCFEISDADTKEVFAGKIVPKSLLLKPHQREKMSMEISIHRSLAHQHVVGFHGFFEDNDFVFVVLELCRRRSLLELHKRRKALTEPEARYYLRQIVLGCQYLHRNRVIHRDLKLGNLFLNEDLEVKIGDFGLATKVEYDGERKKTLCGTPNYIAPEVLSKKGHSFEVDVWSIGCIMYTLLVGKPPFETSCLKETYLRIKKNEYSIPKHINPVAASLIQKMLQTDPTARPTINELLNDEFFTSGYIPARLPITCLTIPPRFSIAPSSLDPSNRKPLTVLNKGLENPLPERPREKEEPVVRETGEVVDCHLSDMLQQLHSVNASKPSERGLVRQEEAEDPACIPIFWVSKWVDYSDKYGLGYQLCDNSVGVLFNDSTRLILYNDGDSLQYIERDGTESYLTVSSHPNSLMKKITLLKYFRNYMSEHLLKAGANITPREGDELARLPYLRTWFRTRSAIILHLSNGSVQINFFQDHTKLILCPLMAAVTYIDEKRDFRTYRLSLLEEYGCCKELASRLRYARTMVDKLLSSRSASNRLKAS
In words: PLK1 enzyme (polo-like kinase) inhibition test. Type of test: biochemical. To be noted: [γ-33P]ATP, casein substrate; Ki=IC50/(1+S/Km); read-out: Ki value of PLK1 inhibitory activity. Put shortly: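 Recombinant PLK1 phosphorylates casein with [γ-^33P]ATP in MOPS buffer (pH 7.0) containing DTT and magnesium acetate, 20 min at 30° C. Reaction stopped with TCA; washed precipitate counted by liquid scintillation. IC50 for inhibition of ^33P incorporation into casein, converted to Ki via Ki=IC50/(1+S/Km).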

For test [1], the system named is human large intestine cancer cell (HCT 116) tumor. In words: Tumor growth inhibition test in HCT 116-subcutaneously transplanted nude mouse. Type of test: in vivo. To be noted: dose of 100 mg/kg, repeated oral administration, HCT-116 in female BALB nude mice, control group = 100%, read-out: rate of suppression of tumor volume. The procedure: A human large intestine cancer cell line (HCT-116) was cultured in a McCoy's 5A medium containing 10% FBS and 1% penicillin/streptomycin/amphotericin B and adjusted to 1.0×10^8 cells/mL with PBS or Hanks solution (HBSS(−)). The prepared cell suspension was subcutaneously injected at 0.1 mL/mouse to the right abdomens of female BALB nude mice (supplied by Charles River Laboratories Japan, Inc.). After rearing for a certain period, the long diameter (mm) and short diameter (mm) of tumor were measured with electronic calipers, and the tumor volume was calculated according to the following expression: Tumor volume (mm^3)=(Long diameter)×(Short diameter)×(Short diameter)×0.5
Individuals whose tumor volume was within the range of 50 to 200 mm^3 were selected and grouped such that the tumor volume was almost equivalent, then a test compound or only a solvent was orally administered in a repeated manner, and the body weights and tumor volume were measured. A test compound was suspended in a 0.5 w/v % aqueous methylcellulose solution (0.5% MC) (manufactured by Wako Pure Chemical Industries, Ltd.) and orally administered at 10 mL/kg in a repeated manner. When the tumor volume of the control group was defined as 100%, the rate of suppression of tumor volume (%) at each dose of the test compound was calculated.

T1 sequence (P50613 whole entry): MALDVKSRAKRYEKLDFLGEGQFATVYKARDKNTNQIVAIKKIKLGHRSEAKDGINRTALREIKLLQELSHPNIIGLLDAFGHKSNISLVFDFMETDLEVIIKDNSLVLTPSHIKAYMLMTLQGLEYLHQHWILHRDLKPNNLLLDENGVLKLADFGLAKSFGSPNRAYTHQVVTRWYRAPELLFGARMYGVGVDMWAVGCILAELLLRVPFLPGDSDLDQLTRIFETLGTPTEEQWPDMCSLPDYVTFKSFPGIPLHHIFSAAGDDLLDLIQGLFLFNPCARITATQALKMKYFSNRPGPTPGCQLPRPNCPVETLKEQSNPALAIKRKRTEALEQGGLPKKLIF
T1 sequence (P51946 whole entry partner): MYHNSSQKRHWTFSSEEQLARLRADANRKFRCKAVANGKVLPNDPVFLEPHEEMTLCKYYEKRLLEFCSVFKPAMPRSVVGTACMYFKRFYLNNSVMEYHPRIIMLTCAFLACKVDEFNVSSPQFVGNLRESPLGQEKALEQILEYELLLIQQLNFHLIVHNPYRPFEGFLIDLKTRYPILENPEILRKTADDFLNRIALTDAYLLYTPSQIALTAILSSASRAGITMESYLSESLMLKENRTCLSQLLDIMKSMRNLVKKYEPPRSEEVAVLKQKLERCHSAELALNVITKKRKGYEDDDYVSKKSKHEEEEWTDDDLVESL
T1 sequence (P51948 whole entry partner): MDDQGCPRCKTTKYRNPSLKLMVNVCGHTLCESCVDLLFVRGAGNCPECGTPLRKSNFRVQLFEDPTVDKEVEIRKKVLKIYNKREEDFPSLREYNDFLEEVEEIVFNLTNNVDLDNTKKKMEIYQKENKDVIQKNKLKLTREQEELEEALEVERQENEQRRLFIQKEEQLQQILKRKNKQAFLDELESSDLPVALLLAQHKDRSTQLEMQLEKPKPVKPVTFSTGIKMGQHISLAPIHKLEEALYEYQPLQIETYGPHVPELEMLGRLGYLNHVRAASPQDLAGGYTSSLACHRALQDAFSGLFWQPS

The term Ki denotes a dissociation constant, usually derived from enzyme kinetics or from competition with a known ligand. `Cc1cccc(Br)c1NC(=O)N1Cc2c(NC(=O)C3([Si](C)(C)C)CCC3)n[nH]c2C1(C)C` [IV-299, N-(2-Bromo-6-methylphenyl)-6,6-dimethyl-3-[1-(trimethylsilyl)cyclobutanecarboxamido]-4,6-dihydropyrrolo[3,4-c]pyrazole-5 (1H)-carboxamide]: the Ki at CDK7 is ≤ 50 nM; at PLK1, ≥ 5000 nM. Moreover, the inhibition in vivo at 100 mg/kg in test [1] was ≥ 50%.
Regarding `CC1(C)c2[nH]nc(NC(=O)C3([Si](C)(C)C)CCC3)c2CN1C(=O)Nc1c(Cl)cccc1Cl` [IV-199, N-(2,6-Dichlorophenyl)-6,6-dimethyl-3-[1-(trimethylsilyl)cyclobutanecarboxamido]-4,6-dihydropyrrolo[3,4-c]pyrazole-5(1H)-carboxamide], the Ki was ≤ 50 nM on CDK7 and ≥ 5000 nM at PLK1. Further, the inhibition in vivo at 100 mg/kg in test [1] is ≥ 50%.
Take `CC1(C)c2[nH]nc(NC(=O)C3([Si](C)(C)C)CCC3)c2CN1C(=O)Nc1c(F)cccc1OC(F)F` [IV-169, N-[2-(Difluoromethoxy)-6-fluorophenyl]-6,6-dimethyl-3-[1-(trimethylsilyl)cyclobutanecarboxamido]-4,6-dihydropyrrolo[3,4-c]pyrazole-5(1H)-carboxamide]: the Ki is ≤ 50 nM on CDK7 and ≥ 5000 nM at PLK1.
On to `CC1(C)c2[nH]nc(NC(=O)C3([Si](C)(C)C)CCC3)c2CN1C(=O)Nc1c(F)ccc2ccoc12` [IV-1049, N-(6-Fluorobenzofuran-7-yl)-6,6-dimethyl-3-[1-(trimethylsilyl)cyclobutanecarboxamido]-4,6-dihydropyrrolo[3,4-c]pyrazole-5 (1H)-carboxamide], for which the values for the Ki at CDK7 and at PLK1 were ≤ 50 nM and ≥ 5000 nM, respectively. For the same molecule, in test [1], the inhibition in vivo at 100 mg/kg is ≥ 50%.
With `Cc1cccc(F)c1NC(=O)N1Cc2c(NC(=O)C3([Si](C)(C)C)CCC3)n[nH]c2C1(C)C` [IV-129, N-(2-Fluoro-6-methylphenyl)-6,6-dimethyl-3-[1-(trimethylsilyl)cyclobutanecarboxamido]-4,6-dihydropyrrolo[3,4-c]pyrazole-5 (1H)-carboxamide], the Ki on CDK7 was ≤ 50 nM; on PLK1, ≥ 5000 nM.
With `Cc1cccc(Cl)c1NC(=O)N1Cc2c(NC(=O)C3([Si](C)(C)C)CCC3)n[nH]c2C1(C)C` [IV-215, N-(2-Chloro-6-methylphenyl)-6,6-dimethyl-3-[1-(trimethylsilyl)cyclobutanecarboxamido]-4,6-dihydropyrrolo[3,4-c]pyrazole-5 (1H)-carboxamide], the Ki at CDK7 is ≤ 50 nM; on PLK1, ≥ 5000 nM. For the same molecule, in test [1], the inhibition in vivo at 100 mg/kg was ≥ 50%.
In the case of `Cc1ccc(F)c(NC(=O)N2Cc3c(NC(=O)C4([Si](C)(C)C)CCC4)n[nH]c3C2(C)C)c1` [IV-127, N-(2-Fluoro-5-methylphenyl)-6,6-dimethyl-3-[1-(trimethylsilyl)cyclobutanecarboxamido]-4,6-dihydropyrrolo[3,4-c]pyrazole-5 (1H)-carboxamide], the Ki on CDK7 was ≤ 50 nM; at PLK1 it was ≥ 5000 nM. In test [1], the inhibition in vivo at 100 mg/kg is ≥ 50%.
In the case of `CC1(C)c2[nH]nc(NC(=O)C3([Si](C)(C)C)CCC3)c2CN1C(=O)Nc1c(F)ccc2cc(Cl)oc12` [IV-1063, N-(2-Chloro-6-fluorobenzofuran-7-yl)-6,6-dimethyl-3-[1-(trimethylsilyl)cyclobutanecarboxamido]-4,6-dihydropyrrolo[3,4-c]pyrazole-5(1H)-carboxamide], the figures for the Ki on CDK7 and at PLK1 were ≤ 50 nM and ≥ 5000 nM, respectively. Also, the inhibition in vivo at 100 mg/kg in test [1] was ≥ 50%.
In the same order, the values of `CC1(C)c2[nH]nc(NC(=O)C3([Si](C)(C)C)CCC3)c2CN1C(=O)Nc1c(F)ccc(F)c1F` [IV-597, 6,6-Dimethyl-N-(2,3,6-trifluorophenyl)-3-[1-(trimethylsilyl)cyclobutanecarboxamido]-4,6-dihydropyrrolo[3,4-c]pyrazole-5(1H)-carboxamide] are ≤ 50 nM, ≥ 5000 nM and ≥ 50%.
As to `Cc1ccc(F)cc1NC(=O)N1Cc2c(NC(=O)C3([Si](C)(C)C)CCC3)n[nH]c2C1(C)C` [IV-361, N-(5-Fluoro-2-methylphenyl)-6,6-dimethyl-3-[1-(trimethylsilyl)cyclobutanecarboxamido]-4,6-dihydropyrrolo[3,4-c]pyrazole-5 (1H)-carboxamide], the figures for the Ki at CDK7 and on PLK1 were ≤ 50 nM and ≥ 5000 nM, respectively. Besides, the inhibition in vivo at 100 mg/kg in test [1] was ≥ 50%.
On to `COc1cccc(F)c1NC(=O)N1Cc2c(NC(=O)C3([Si](C)(C)C)CCC3)n[nH]c2C1(C)C` [IV-161, N-(2-Fluoro-6-methoxyphenyl)-6,6-dimethyl-3-[1-(trimethylsilyl)cyclobutanecarboxamido]-4,6-dihydropyrrolo[3,4-c]pyrazole-5(1H)-carboxamide], for which the Ki is ≤ 50 nM at CDK7 and ≥ 5000 nM at PLK1.
Consider `CCc1cccc(C)c1NC(=O)N1Cc2c(NC(=O)C3([Si](C)(C)C)CCC3)n[nH]c2C1(C)C` [IV-389, N-(2-Ethyl-6-methylphenyl)-6,6-dimethyl-3-[1-(trimethylsilyl)cyclobutanecarboxamido]-4,6-dihydropyrrolo[3,4-c]pyrazole-5 (1H)-carboxamide], for which the Ki on CDK7 was ≤ 50 nM; at PLK1, ≥ 5000 nM. Moreover, the inhibition in vivo at 100 mg/kg in test [1] is ≥ 50%.
Turning to `CC1(C)c2[nH]nc(NC(=O)C3([Si](C)(C)C)CCC3)c2CN1C(=O)Nc1ccccc1Br` [IV-15, N-(2-Bromophenyl)-6,6-dimethyl-3-[1-(trimethylsilyl)cyclobutanecarboxamido]-4,6-dihydropyrrolo[3,4-c]pyrazole-5(1H)-carboxamide], the values for the inhibition constant (Ki) at CDK7 and at PLK1 were ≤ 50 nM and ≥ 5000 nM, respectively. In addition, in test [1], the inhibition in vivo at 100 mg/kg was ≥ 50%.
Consider `Cc1ccccc1NC(=O)N1Cc2c(NC(=O)C3([Si](C)(C)C)CCC3)n[nH]c2C1(C)C` [IV-21, 6,6-Dimethyl-N-(o-tolyl)-3-[1-(trimethylsilyl)cyclobutanecarboxamido]-4,6-dihydropyrrolo[3,4-c]pyrazole-5(1H)-carboxamide], for which the Ki was ≤ 50 nM on CDK7 and ≥ 5000 nM at PLK1. Moreover, in test [1], the inhibition in vivo at 100 mg/kg was ≥ 50%.
For the molecule `Cc1ccc(C)c(NC(=O)N2Cc3c(NC(=O)C4([Si](C)(C)C)CCC4)n[nH]c3C2(C)C)c1` [IV-379, N-(2,5-Dimethylphenyl)-6,6-dimethyl-3-[1-(trimethylsilyl)cyclobutanecarboxamido]-4,6-dihydropyrrolo[3,4-c]pyrazole-5(1H)-carboxamide], the Ki at CDK7 was ≤ 50 nM; at PLK1, ≥ 5000 nM. For the same molecule, in test [1], the inhibition in vivo at 100 mg/kg was ≥ 50%.
As to `Cc1cc(F)ccc1NC(=O)N1Cc2c(NC(=O)C3([Si](C)(C)C)CCC3)n[nH]c2C1(C)C` [IV-359, N-(4-Fluoro-2-methylphenyl)-6,6-dimethyl-3-[1-(trimethylsilyl)cyclobutanecarboxamido]-4,6-dihydropyrrolo[3,4-c]pyrazole-5 (1H)-carboxamide], the Ki at CDK7 is ≤ 50 nM; on PLK1, ≥ 5000 nM. Besides, the inhibition in vivo at 100 mg/kg in test [1] is ≥ 50%.
In the same order, the values of `CC1(C)c2[nH]nc(NC(=O)C3([Si](C)(C)C)CCC3)c2CN1C(=O)Nc1ccccc1F` [IV-3, N-(2-Fluorophenyl)-6,6-dimethyl-3-[1-(trimethylsilyl)cyclobutanecarboxamido]-4,6-dihydropyrrolo[3,4-c]pyrazole-5(1H)-carboxamide] are ≤ 50 nM, ≥ 5000 nM and ≥ 50%.
For `CCc1cccc(F)c1NC(=O)N1Cc2c(NC(=O)C3([Si](C)(C)C)CCC3)n[nH]c2C1(C)C` [IV-137, N-(2-Ethyl-6-fluorophenyl)-6,6-dimethyl-3-[1-(trimethylsilyl)cyclobutanecarboxamido]-4,6-dihydropyrrolo[3,4-c]pyrazole-5(1H)-carboxamide], the Ki at CDK7 is ≤ 50 nM; at PLK1 it was ≥ 5000 nM.
In the same order, the values of `COc1cccc(Cl)c1NC(=O)N1Cc2c(NC(=O)C3([Si](C)(C)C)CCC3)n[nH]c2C1(C)C` [IV-247, N-(2-Chloro-6-methoxyphenyl)-6,6-dimethyl-3-[1-(trimethylsilyl)cyclobutanecarboxamido]-4,6-dihydropyrrolo[3,4-c]pyrazole-5(1H)-carboxamide] are ≤ 50 nM and ≥ 5000 nM.
